Data taken from patent US12338203B2 (TAISHO PHARMACEUTICAL CO., LTD., priority 2019, dated 2025).

What follows are compounds tested against T1, human LPAR1 (Homo sapiens, UniProt Q92633) (assay: Test Example 1: antagonism against response of LPA-induced increase in intracellular Ca2+ concentration in RH7777 cells stably expressing human LPAR1). Settings: not given.
T1 construct: expressed in transfected cells
T1 sequence (Q92633 whole entry): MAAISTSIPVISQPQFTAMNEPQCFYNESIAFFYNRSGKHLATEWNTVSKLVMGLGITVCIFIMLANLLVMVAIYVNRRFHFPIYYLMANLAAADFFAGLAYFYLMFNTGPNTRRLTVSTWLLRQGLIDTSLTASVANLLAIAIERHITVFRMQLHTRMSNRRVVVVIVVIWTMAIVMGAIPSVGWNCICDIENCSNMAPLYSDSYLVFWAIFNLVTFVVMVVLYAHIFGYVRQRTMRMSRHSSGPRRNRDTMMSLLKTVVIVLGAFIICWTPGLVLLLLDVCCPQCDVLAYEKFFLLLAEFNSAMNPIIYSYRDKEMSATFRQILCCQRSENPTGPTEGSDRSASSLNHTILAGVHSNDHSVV
Type: cell-based
In short: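 RH7777 cells stably transfected with human LPAR1 were preincubated with test compound 30 min at 37 °C in HBSS/20 mM HEPES/probenecid/0.05% BSA buffer, pH 7.4, then LPA-stimulated.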
For `COc1cc(C(C)N(CCCCc2ccccc2)C(=O)NC2(C(=O)O)CC(F)(F)C2)cc(OC)c1C` (stereo not shown) [Example 1-66], the IC50 was 3.96 nM.

Same assay, conditions: RH7777 cells stably expressing human LPAR1; Fluo-4 fluorescence, FDSS6000; read-out: IC50 value (concentration producing 50% antagonism against response of LPA-induced increase in intracellular Ca2+ concentration) (converted)
With `CCOc1cc(OCC)cc(C(C)N(CCCCc2ccccc2)C(=O)NC2(C(=O)OC)CCCC2)c1` (stereo not shown) [Example 6-2, Methyl 1-({[1-(3,5-Diethoxyphenyl)Ethyl](4-Phenylbutyl) Carbamoyl}Amino)Cyclopentane-1-Carboxylate] the IC50 was 3760 nM. For `CCOc1cc([C@@H](C)N(CCCC(F)(F)c2ccccc2)C(=O)NC2(C(=O)O)CCOCC2)cc(OCC)c1C(C)O` (stereo partly shown) [Example 4-77], the IC50 was 5.87 nM. In the case of `CCOc1cc([C@@H](C)N(CCCCc2ccccc2)C(=O)N[C@H]2COC[C@H]2C(=O)O)cc(OCC)c1C(C)=O` [Example 1-161], the IC50 is reported as 9.64 nM. For `CCOc1cc(C(C)N(CCCCc2ccccc2)C(=O)NC2(C(=O)O)CC(F)(F)C2)cc(OCC)c1C(C)C` (stereo not shown) [Example 1-49], the IC50 was 5.21 nM. `CCOc1cc(C(C)N(CCCCc2ccccc2)C(=O)NC2(C(=O)O)CCCC2)cc(OC(C)C)c1C` (stereo not shown) [Example 1-114] was tested, and the IC50 was 128 nM. `CCOc1c(C2CC2)ccc([C@@H](C)N(CCO[C@@H](C)c2ccccc2)C(=O)NC2(C(=O)O)CCC2)c1C` [Example 4-166] was tested, and the IC50 was 2.02 nM. For `CCOc1cc([C@@H](C)N(CCCCc2ccccc2)C(=O)NC2(c3nn[nH]n3)CC(F)(F)C2)c(Cl)c(OCC)c1C(C)O` (stereo partly shown) [Example 10-11], the IC50 was 8.1 nM. Compound `CCO[C@H]1C[C@@](NC(=O)N(CCO[C@@H](C)c2ccccc2)C(C)c2cc(OC)c(C(C)=O)c(OC)c2Cl)(C(=O)O)C1` (stereo partly shown) [Example 5-128] has an IC50 of 10.3 nM. Compound `CCOc1c(C(C)=O)ccc([C@@H](C)N(CCCC(F)(F)c2ccccc2)C(=O)NC2(C(=O)O)CCC2)c1C` [Example 4-54] has an IC50 of 3.75 nM. With `CCOc1cc([C@@H](C)N(CCc2ccc(OC)cc2)C(=O)NC2(C(=O)O)CC(F)(F)C2)cc(OCC)c1C` [Example 4-20] the IC50 was 148 nM. In the case of `CCOc1cc(C(C)N(CCCCc2ccccc2)C(=O)NC2(C(=O)O)CC(F)(F)C2)cc(OCC)c1C(C)=O` (stereo not shown) [Example 1-29], the IC50 is reported as 3.12 nM. Compound `CCOc1cncc(C(C)N(CCCCc2ccccc2)C(=O)NC2(C(=O)O)CC(F)(F)C2)c1` (stereo not shown) [Example 5-89] has an IC50 of 55.3 nM. In the case of `CCOc1cc([C@@H](C)N(CCCCc2cccnc2)C(=O)NC2(C(=O)O)CC(F)(F)C2)cc(OCC)c1C` [Example 4-29], the IC50 is reported as 17.6 nM. `CCOc1cc([C@@H](C)N(CCO[C@@H](C)c2ccccc2)C(=O)N[C@]2(C(=O)O)C[C@@H](OCC)C2)cc(OCC)c1C1CC1` [Example 4-139, cis-1-[([(1R)-1-(4-cyclopropyl-3,5-diethoxyphenyl)ethyl]{2-[(1S)-1-phenylethoxy]ethyl}carbamoyl)amino]-3-ethoxycyclobutane-1-carboxylic acid] showed an IC50 of 1.32 nM. Compound `CCOc1cc([C@@H](C)N(CCCCc2ccccc2)C(=O)NC2(C(=O)O)CC(F)(F)C2)cc(OCC)c1C1CC1` [Example 1-46, Sodium 1-({[(1R)-1-(4-Cyclopropyl-3,5-Diethoxyphenyl)Ethyl](4-Phenylbutyl) Carbamoyl}Amino)-3,3-Difluorocyclobutane-1-Carboxylate] has an IC50 of 1 nM. For `COc1cc(C(C)N(CCOCc2ccccc2)C(=O)NC2(C(=O)O)CC(F)(F)C2)c(C)c(OC)c1C1CC1` (stereo not shown) [Example 5-146], the IC50 was 1.02 nM. `CCOc1cc(C(C)N(CCO[C@@H](C)c2ccccc2)C(=O)NC2(C(=O)OC(C)(C)C)CC(OCC)C2)c(Cl)c(OCC)c1C(C)=O` (stereo partly shown) [Example 6-15] gave an IC50 of 3340 nM. For `CCOc1cc([C@@H](C)N(CCC(F)(F)Cc2ccccc2)C(=O)NC2(C(=O)O)CC(F)(F)C2)cc(OCC)c1C(C)=O` [Example 4-84], the IC50 was 2.88 nM. `CCOc1cc([C@@H](C)N(CCOCc2ccccc2)C(=O)NC2(C(=O)O)CC(F)(F)C2)cc(OCC)c1C(C)O` (stereo partly shown) [Example 4-103] was tested, and the IC50 was 1.98 nM. Work on `COc1cc(C(C)N(CCOCc2ccccc2)C(=O)NC2(C(=O)O)CC(F)(F)C2)c(Cl)c(OC)c1C1CC1` (stereo not shown) [Example 5-144] yielded an IC50 of 1.11 nM. For `CCOc1cc([C@@H](C)N(CCCCc2ccccc2)C(=O)NC2(CC(=O)O)CCOCC2)cc(OCC)c1C(C)=O` [Example 1-166], the IC50 was 11 nM.
